Values joined by “and” are separate entries in the source; they are usually repeats but may differ in a detail not shown here. Identical values can stand only once.
System: OPM-2 xenografts
Assay: OPM-2 xenograft efficacy (tumor volume, body weight)
Format: in vivo, mouse
Conditions: for Tumor Volume (mm³) Day 27, Mean: group mean; for Tumor Volume (mm³) Day 27, Median: group median; for Tumor Volume (mm³) Day 27 / Tumor Volume (mm³) Day 30 / Tumor Volume (mm³) Day 34: individual animals; for Tumor Volume (mm³) Day 23 (individual animals) / Tumor Volume Day 23, Mean / Tumor Volume Day 23, Median / % T/C (mean) / % T/C (median): Day 23
Experimental: All animal studies were conducted in accordance with the guidelines approved by the Institutional Animal Care and Use Committees of AbbVie. The research protocol was approved by In Vivo Pharmacology at AbbVie prior to study initiation but was not publicly registered or disclosed. Female C.B-17 SCID-beige mice (AMO-1, OPM-2, NCI-H929, and OCI-AML2 xenografts) and female NSG mice (MV4-11-Red.Fluc systemic) were purchased from Charles River Laboratories (Wilmington, MA). Animals were housed in a light cycle-controlled room with HEPA filtration at 22 °C. Animals had nesting and climbing cage topper as the primary environmental enrichment. Animals were inoculated subcutaneously in the right flank with 5 × 10^6 (AMO-1, OPM-2, NCI-H929, and OCI-AML2) or intravenous (IV) with 5 × 10^6 (MV4-11-Red.Fluc). The inoculation volume (0.2 mL) comprised a 50:50 mixture of cells in growth media and Matrigel (BD Biosciences) for subcutaneous injections and 100% phosphate-buffered saline for IV administration. All cell lines used in this publication were authenticated using IDEXX for STR profiling as well as their IMPACT and human IMPACT panels for pathogen screening. Electronic calipers were used to measure the length and width of each tumor 2 to 3 times per week. Tumor volume was estimated by applying the following equation: volume = length × width^2/2. All groups remained blinded during measurements and dosing; only veterinary staff were aware of group identity. When tumors reached approximately 200 mm^3, mice were randomized by match and distributed into treatment and control groups. All xenograft trials were conducted using 5 to 10 mice per group, and all mice were ear tagged and monitored individually throughout the studies. Any animal with a tumor above 2000 mm^3 or 15% loss in body weight was euthanized and removed from the study. Tumor burden in the systemic MV4-11-Red.Fluc experiment was measured using an IVIS® spectrum from PerkinElmer by taking the total photon flux of the entire dorsal side of an individual mouse. Ten minutes prior to imaging, animals received intraperitoneally 0.2 mL of a 15-mg/mL solution of D-Luciferin (PerkinElmer, Catalog #122799) formulated in 100% phosphate-buffered saline. Animals were anesthetized using 3.5% isoflurane and maintained using 2%. Six days after inoculation, animals were imaged and randomized into vehicle and treatment groups at a total flux of ~1 × 10^8. A background control mouse that was tumor naive but received D-Luciferin was placed in the upper left corner of each image. The total flux from this animal was subtracted from the total flux of each animal present in the image.
For in vivo studies, maximal tumor growth inhibition (TGI) was calculated as the greatest treatment response using the following equation: Maximal TGI = (1 − mean tumor volume of the treated group/mean tumor volume of the vehicle control group) × 100. The tumor growth delay (TGD) percentage was determined as the percentage increase of the median time period for the treatment group to reach an arbitrary tumor volume of 1000 mm^3 relative to the vehicle control group. […] A power analysis was conducted using historical data to determine the number of animals required to yield significance of 0.05 at a 30% difference. There were no animals excluded. Data from experiments in vivo were analyzed using the student’s t-test for TGI values and the Mann–Whitney U test for TGD using Excel and GraphPad Prism. Fisher’s exact test was used to probe significance of differences in response frequency.

[1] = 6.25 mg/kg q7dx3 IV, mean(T)/mean(C)
[2] = 6.25 mg/kg q7dx3 IV, median(T)/median(C)
[3] = 6.25 mg/kg q7dx3 IV, SCID-beige mice
[4] = 6.25 mg/kg q7dx3 IV, OPM-2 (DSMZ) xenograft, SCID-beige mice
[5] = 25 mg/kg q7dx3 IV, mean(T)/mean(C)
[6] = 25 mg/kg q7dx3 IV, median(T)/median(C)
[7] = 25 mg/kg q7dx3 IV, SCID-beige mice
[8] = 25 mg/kg q7dx3 IV, OPM-2 (DSMZ) xenograft, SCID-beige mice
[9] = OPM-2 (DSMZ) xenograft, SCID-beige mice, 6.25 mg/kg q7dx3 IV
[10] = OPM-2 (DSMZ) xenograft, SCID-beige mice, 25 mg/kg q7dx3 IV

In the case of Cc1c(Cl)c2c(Cl)c(C)c1-c1c(-c3ccc(F)cc3)sc3ncnc(c13)O[C@@H](C(=O)O)Cc1cc(ccc1OCc1ccnc(-c3ccc(OC[C@H]4COCCO4)cc3)n1)OC[C@@H](CN1CCN(C)CC1)O2 [Compound A-1747745], the “% Mortality” value (6.25 mg/kg IV q7dx3, clinical observation, SCID-beige mice, OPM-2 (DSMZ) xenograft) was 100.00%, the “Tumor Volume (mm³) Day 27, Mean” value (6.25 mg/kg q7dx3 IV) was 468.28 mm³ and the “Tumor Volume (mm³) Day 27, Median” value (6.25 mg/kg q7dx3 IV) was 424.66 mm³. For the same molecule, the “Tumor Volume (mm³) Day 27” value (6.25 mg/kg q7dx3 IV) was 369 mm³ and 671 mm³ and 322 mm³ and 348 mm³ and 352 mm³ and 673 mm³ and 481 mm³ and 531 mm³, the “Body Weight Day 27, % T/C (mean)” value [1] was 97.79% and the “Tumor Volume Day 27, % T/C (mean)” value [1] was 49.20%. For the same molecule, the “Body Weight Day 27, % T/C (median)” value [2] was 97.79%, the “Tumor Volume Day 27, % T/C (median)” value [2] was 41.20% and the “% T/C (mean), Tumor Volume Day 30” value (6.25 mg/kg q7dx3 IV) was 42.91%. The “% T/C (median), Tumor Volume Day 30” value (6.25 mg/kg q7dx3 IV) was 42.72%, the “Tumor Volume Day 30, Mean” value (6.25 mg/kg q7dx3 IV) was 634.52 mm³ and the “Tumor Volume Day 30, Median” value (6.25 mg/kg q7dx3 IV) was 618.80 mm³. For the same molecule, the “Tumor Volume (mm³) Day 30” value [3] was 375 mm³ and 897 mm³ and 567 mm³ and 528 mm³ and 560 mm³ and 806 mm³ and 673 mm³ and 670 mm³, the “Tumor Volume Day 34, Mean” value (6.25 mg/kg q7dx3 IV) was 930.42 mm³ and the “Tumor Volume Day 34, Median” value (6.25 mg/kg q7dx3 IV) was 940.62 mm³. The “Tumor Volume (mm³) Day 34” value [3] was 591 mm³ and 1061 mm³ and 690 mm³ and 703 mm³ and 1071 mm³ and 821 mm³ and 1142 mm³ and 1365 mm³, the “Tumor Volume (mm³) Day 23 (individual animals)” value [4] was 264 mm³ and 376 mm³ and 277 mm³ (2×) and 196 mm³ and 349 mm³ and 392 mm³ and 253 mm³ and the “Tumor Volume Day 23, Mean” value [4] was 298.00 mm³. The “Tumor Volume Day 23, Median” value [4] was 276.63 mm³, the “% T/C (mean)” value (6.25 mg/kg q7dx3 IV, OPM-2 (DSMZ) xenograft, mean(T)/mean(C)) was 68.08% and the “% T/C (median)” value (6.25 mg/kg q7dx3 IV, OPM-2 (DSMZ) xenograft, median(T)/median(C)) was 67.57%. The “% Mortality” value (25 mg/kg IV q7dx3, clinical observation, SCID-beige mice, OPM-2 (DSMZ) xenograft) was 0.00%, the “% BW Loss” value (25 mg/kg IV q7dx3, day 27, clinical observation) was -2% (day 27) and the “Tumor Volume (mm³) Day 27, Mean” value (25 mg/kg q7dx3 IV) was 75.56 mm³. For the same molecule, the “Tumor Volume (mm³) Day 27, Median” value (25 mg/kg q7dx3 IV) was 79.55 mm³, the “Tumor Volume (mm³) Day 27” value (25 mg/kg q7dx3 IV) was 109 mm³ and 83 mm³ and 115 mm³ and 60 mm³ and 69 mm³ and 4 mm³ and 77 mm³ and 88 mm³ and the “Body Weight Day 27, % T/C (mean)” value [5] was 101.28%. The “Tumor Volume Day 27, % T/C (mean)” value [5] was 7.94%, the “Body Weight Day 27, % T/C (median)” value [6] was 101.28% and the “Tumor Volume Day 27, % T/C (median)” value [6] was 7.72%. The “% T/C (mean), Tumor Volume Day 30” value (25 mg/kg q7dx3 IV) was 2.78%, the “% T/C (median), Tumor Volume Day 30” value (25 mg/kg q7dx3 IV) was 0.28% and the “Tumor Volume Day 30, Mean” value (25 mg/kg q7dx3 IV) was 41.06 mm³. For the same molecule, the “Tumor Volume Day 30, Median” value (25 mg/kg q7dx3 IV) was 4.00 mm³, the “Tumor Volume (mm³) Day 30” value [7] was 135 mm³ and 4 mm³ (5×) and 87 mm³ (2×) and the “Tumor Volume Day 34, Mean” value (25 mg/kg q7dx3 IV) was 4.00 mm³. For the same molecule, the “Tumor Volume Day 34, Median” value (25 mg/kg q7dx3 IV) was 4.00 mm³, the “Tumor Volume (mm³) Day 34” value [7] was 4 mm³ and the “Tumor Volume (mm³) Day 23 (individual animals)” value [8] was 275 mm³ and 201 mm³ and 232 mm³ and 269 mm³ and 236 mm³ and 126 mm³ and 388 mm³ and 205 mm³. The “Tumor Volume Day 23, Mean” value [8] was 241.42 mm³, the “Tumor Volume Day 23, Median” value [8] was 233.81 mm³ and the “% T/C (mean)” value (25 mg/kg q7dx3 IV, OPM-2 (DSMZ) xenograft, mean(T)/mean(C)) was 55.16%. For the same molecule, the “% T/C (median)” value (25 mg/kg q7dx3 IV, OPM-2 (DSMZ) xenograft, median(T)/median(C)) was 57.11%, the “Tumor Volume Day 20, Mean” value [9] was 237.41 mm³ and the “Tumor Volume Day 20, Median” value [9] was 234.06 mm³. For the same molecule, the “Tumor Volume (mm³) Day 20, individual animals” value (OPM-2 (DSMZ) xenograft, SCID-beige mice, 6.25 mg/kg q7dx3 IV, 6.25 mg/kg) was 217 mm³ and 238 mm³ and 188 mm³ and 184 mm³ and 290 mm³ and 300 mm³ and 252 mm³ and 230 mm³, the “Tumor Volume Day 20, % T/C (mean)” value (OPM-2 (DSMZ) xenograft, SCID-beige mice, 6.25 mg/kg q7dx3 IV, mean(T)/mean(C)) was 99.97% and the “Tumor Volume Day 20, % T/C (median)” value (OPM-2 (DSMZ) xenograft, SCID-beige mice, 6.25 mg/kg q7dx3 IV, median(T)/median(C)) was 101.50%. The “Body Weight Day 21, % T/C (mean)” value (OPM-2 (DSMZ) xenograft, SCID-beige mice, 6.25 mg/kg q7dx3 IV, Day 21, mean(T)/mean(C)) was 100.00%, the “Body Weight Day 21, % T/C (median)” value (OPM-2 (DSMZ) xenograft, SCID-beige mice, 6.25 mg/kg q7dx3 IV, Day 21, median(T)/median(C)) was 100.00% and the “Tumor Volume Day 20, Mean” value [10] was 237.54 mm³. For the same molecule, the “Tumor Volume Day 20, Median” value [10] was 238.03 mm³, the “Tumor Volume (mm³) Day 20, individual animals” value (OPM-2 (DSMZ) xenograft, SCID-beige mice, 25 mg/kg q7dx3 IV, 25 mg/kg) was 283 mm³ and 220 mm³ and 249 mm³ and 228 mm³ and 248 mm³ and 178 mm³ and 301 mm³ and 193 mm³ and the “Tumor Volume Day 20, % T/C (mean)” value (OPM-2 (DSMZ) xenograft, SCID-beige mice, 25 mg/kg q7dx3 IV, mean(T)/mean(C)) was 100.03%. For the same molecule, the “Tumor Volume Day 20, % T/C (median)” value (OPM-2 (DSMZ) xenograft, SCID-beige mice, 25 mg/kg q7dx3 IV, median(T)/median(C)) was 103.23%.
